Earlier results on three molecules are cited in publication PMC5051147, “Ester Hydrolysis Differentially Reduces Aconitine-Induced Anti-hypersensitivity and Acute Neurotoxicity: Involvement of Spinal Microglial Dynorphin Expression and Implications for Aconitum Processing” (Frontiers in Pharmacology, 2016).

For data set [1], the system named is acetic acid and formalin tests. Further details: method as in Yu et al., 1996. Particulars: systemic; ref Yu et al., 1996; cited from earlier work.
Data set [2] concerns mechanical allodynia in spinal L5/L6 nerve–ligated neuropathic rats. Further details: method as in Li et al., 2016. Particulars: ref Li et al., 2016; cited from earlier work.
Data set [3] has as its system dynorphin A expression in spinal microglia. Particulars: ref Li et al., 2016, cited from earlier work.
The test system of data set [4] is heat hyperalgesia in spinal L5/L6 nerve–ligated neuropathic rats. Further details: method as in Li et al., 2016. To be noted: ref Li et al., 2016; cited from earlier work.
The subject of the next data set is mice. Further details: method as in Zheng et al., 1994. Particulars: subcutaneous, ref Zheng et al., 1994; cited from earlier work.
The test system of another data set is rats. Further details: method as in Zheng et al., 1994. To be noted: subcutaneous, ref Zheng et al., 1994; cited from earlier work.
On the set-up of data set [5]: method as in Zheng et al., 1994. To be noted: intracerebroventricular injection; ref Zheng et al., 1994; cited from earlier work.

Regarding `CCN1C[C@]2(COC)[C@H](O)C[C@H](OC)[C@]34C1[C@H]([C@H](OC)[C@H]23)[C@@]1(OC(C)=O)C[C@H](OC)[C@@]2(O)C[C@@H]4[C@@H]1[C@H]2OC(=O)c1ccc(OC)cc1` [yunaconitine], in data set [1], the “Antinociception compared with analogues” value was “greater antinociception than bulleyaconitine A and 3-acetylaconitine”.

On to bulleyaconitine A, for which, in data set [2], the “ED50, block of mechanical allodynia” value was 180 pmol. The EC50 in data set [3] (read-out: EC50, stimulation of microglial dynorphin A expression) is 45 nM. For the same molecule, the “Effect on dynorphin A level / expression” value in data set [3] (spinal cord and cultured primary spinal microglia) is on record as “significantly increased the dynorphin A level”. Further, the “ED50, block of heat hyperalgesia” value in data set [4] is 201 pmol.

As for `CCN1C[C@]2(COC)[C@H](OC(C)=O)C[C@H](OC)C34C1C([C@H](OC)[C@@H]32)[C@]1(O)[C@@H]2[C@H]4C[C@@](O)([C@@H]2OC(=O)c2ccccc2)[C@@H](OC)[C@@H]1OC(C)=O` [3,15-diacetylbenzoylaconine], the “ED50 relative to 3-acetylaconitine (times greater)” value was 12–16 times in the data set on mice and 25–30 times with rats. Also, the “Therapeutic index relative to 3-acetylaconitine” value in data set [5] is “three-fold higher”.
